Like-named read-outs stand apart in the source and are kept apart here.
Legend:
[1] = assay type: physicochemical; conditions: SGF with pepsin, pH 1.5, 37° C., 0.5 mM
[2] = assay type: physicochemical; conditions: DI water, 25° C., 0.5 mM

Structure (SMILES)	Condition 1 Conversion (%) ([1]; time 1 min)	Condition 1 Conversion (%) ([1]; time 5 min)	Condition 1 Conversion (%) ([1]; time 30 min)	Condition 1 Conversion (%) ([1]; time 1 h)	Condition 1 Conversion (%) ([1]; time 4 h)	Condition 1 Conversion (%) ([1]; time 24 h)	Condition 2 Conversion (%) ([2]; time 1 min)	Condition 2 Conversion (%) ([2]; time 5 min)	Condition 2 Conversion (%) ([2]; time 30 min)	Condition 2 Conversion (%) ([2]; time 1 h)	Condition 2 Conversion (%) ([2]; time 4 h)	Condition 2 Conversion (%) ([2]; time 24 h)
COc1ccc([C@@]23CCC(=NNC(=O)c4ccc(Cl)cc4)C[C@@H]2N(C)CC3)cc1OC [Compound 240, N-[[(3aS,7aS)-3a-(3,4-dimethoxyphenyl)-1-methyl-2,3,4,5,7,7a-hexahydroindol-6-ylidene]amino]-4-chloro-benzamide]	84	100	100	100	100	100	35.7	30	40.5	43.3	54.2	100
COc1ccc([C@@]23CCC(=NNC(=O)C(=O)O)C[C@@H]2N(C)CC3)cc1OC [Compound 241, 2-[2-[(3aS,7aS)-3a-(3,4-dimethoxyphenyl)-1-methyl-2,3,4,5,7,7a-hexahydroindol-6-ylidene]hydrazino]-2-oxo-acetic acid]	100	100	100	100	100	100	0	28	30	52	86	100
COc1ccc([C@@]23CCC(=NNC(=O)CC(CC(=O)O)CC(C)C)C[C@@H]2N(C)CC3)cc1OC (stereo partly drawn) [Compound 242, 3-[2-[2-[(3aS,7aS)-3a-(3,4-dimethoxyphenyl)-1-methyl-2,3,4,5,7,7a-hexahydroindol-6-ylidene]hydrazino]-2-oxo-ethyl]-5-methyl-hexanoic acid]	75.01	95.02	96.13	97.72	98.02	98.34	33.46	36.51	38.53	40.8	55.46	55.7
COc1ccc([C@@]23CC/C(=N\NC(=O)C4(C(=O)O)CC4)C[C@@H]2N(C)CC3)cc1OC [Compound 243, 1-[[[(3aS,7aS)-3a-(3,4-dimethoxyphenyl)-1-methyl-2,3,4,5,7,7a-hexahydroindol-6-ylidene]amino]carbamoyl]cyclopropanecarboxylic acid]	80.17	100	100	100	100	100	0	0	0	0	27.04	46.78
COc1ccc([C@@]23CC/C(=N\NC(=O)c4ccccc4C(=O)O)C[C@@H]2N(C)CC3)cc1OC [Compound 244, 2-[[[(3aS,7aS)-3a-(3,4-dimethoxyphenyl)-1-methyl-2,3,4,5,7,7a-hexahydroindol-6-ylidene]amino]carbamoyl]benzoic acid]	33.93	100	100	100	100	100	0	0	4.08	15.25	24.59	66.56
COc1ccc([C@@]23CC/C(=N\NC(=O)CCC(=O)O)C[C@@H]2N(C)CC3)cc1OC [Compound 245, 4-[2-[(3aS,7aS)-3a-(3,4-dimethoxyphenyl)-1-methyl-2,3,4,5,7,7a-hexahydroindol-6-ylidene]hydrazino]-4-oxo-butanoic acid]	60	100	100	100	100	100	25	35	50	100	100	100
COc1ccc([C@@]23CC/C(=N\NC(=O)Nc4ccccc4Cl)C[C@@H]2N(C)CC3)cc1OC [Compound 249, 1-[(E)-[(3aS,7aS)-3a-(3,4-dimethoxyphenyl)-1-methyl-2,3,4,5,7,7a-hexahydroindol-6-ylidene]amino]-3-(2-chlorophenyl)urea]	0	70.48	96.4	96.5	96.72	96.8	0	0	0	0	9.23	24.65
COc1ccc([C@@]23CCC(=NNC(=O)Nc4cccc(O)c4)C[C@@H]2N(C)CC3)cc1OC [Compound 251, 2-[(3aS,7aS)-3a-(3,4-dimethoxyphenyl)-1-methyloctahydro-6H-indol-6-ylidene)-N-(3-hydroxyphenyl)hydrazine-1-carboxamide]	6.91	100	100	100	100	100	0	0	0	0	0	15.18
COc1ccc(NC(=O)NN=C2CC[C@@]3(c4ccc(OC)c(OC)c4)CCN(C)[C@H]3C2)cc1 [Compound 254, 1-[[(3aS,7aS)-3a-(3,4-dimethoxyphenyl)-1-methyl-2,3,4,5,7,7a-hexahydroindol-6-ylidene]amino]-3-(4-methoxyphenyl)urea]	0	2.4	84.7	91.9	91.9	92	0	0	0	1.1	16.2	17.6
COc1ccc([C@@]23CCC(=NNC(=O)Nc4ccc(S(C)(=O)=O)cc4)C[C@@H]2N(C)CC3)cc1OC [Compound 255, 1-[[(3aS,7aS)-3a-(3,4-dimethoxyphenyl)-1-methyl-2,3,4,5,7,7a-hexahydroindol-6-ylidene]amino]-3-(4-methylsulfonylphenyl)urea]	20.9	65.2	88.6	89.8	88.1	88	0	0	0	2.4	8.4	6

From patent publication US20250051277A1, “DELIVERY OF THERAPEUTIC ALKALOID COMPOUNDS” (Sensorium Therapeutics, Inc., priority 2021, published 2025)
